Source: PubChem BioAssay (NCI)
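How tested: cells in 96-well plates exposed to compound for 48 hours at five concentrations. The concentration for full growth arrest is given as TGI.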

Key:
Test in all cases: inhibition of tumour cell growth, NCI panel, 48 h
KM12 colon = system: KM12 colon
K-562 leukemia = system: K-562 leukemia
NCI/ADR-RES ovarian = system: NCI/ADR-RES ovarian
UACC-62 melanoma = system: UACC-62 melanoma
OVCAR-3 ovarian = system: OVCAR-3 ovarian
HT29 colon = system: HT29 colon
OVCAR-5 ovarian = system: OVCAR-5 ovarian
HCT-15 colon = system: HCT-15 colon
HS 578T breast = system: HS 578T breast
SF-268 CNS = system: SF-268 CNS
UACC-257 melanoma = system: UACC-257 melanoma
A549 NSCLC = system: A549 NSCLC
SK-MEL-2 melanoma = system: SK-MEL-2 melanoma
SR leukemia = system: SR leukemia
SNB-75 CNS = system: SNB-75 CNS
M14 melanoma = system: M14 melanoma
RPMI-8226 leukemia = system: RPMI-8226 leukemia
SW-620 colon = system: SW-620 colon
MCF7 breast = system: MCF7 breast
NCI-H23 lung = system: NCI-H23 lung
SF-295 CNS = system: SF-295 CNS
UO-31 renal = system: UO-31 renal
HOP-92 NSCLC = system: HOP-92 NSCLC
A498 renal = system: A498 renal
MOLT-4 leukemia = system: MOLT-4 leukemia
HOP-62 NSCLC = system: HOP-62 NSCLC
CAKI-1 renal = system: CAKI-1 renal
SK-MEL-28 melanoma = system: SK-MEL-28 melanoma
MDA-MB-231 breast = system: MDA-MB-231 breast
MALME-3M melanoma = system: MALME-3M melanoma
OVCAR-4 ovarian = system: OVCAR-4 ovarian
TK-10 renal = system: TK-10 renal
HCC-2998 colon = system: HCC-2998 colon
T-47D breast = system: T-47D breast
EKVX NSCLC = system: EKVX NSCLC
RXF 393 renal = system: RXF 393 renal
OVCAR-8 ovarian = system: OVCAR-8 ovarian
NCI-H522 lung = system: NCI-H522 lung
LOX IMVI melanoma = system: LOX IMVI melanoma
NCI-H460 lung = system: NCI-H460 lung
U251 CNS = system: U251 CNS
SN12C renal = system: SN12C renal
HCT-116 colon = system: HCT-116 colon
SK-OV-3 ovarian = system: SK-OV-3 ovarian
786-0 renal = system: 786-0 renal
DU-145 prostate = system: DU-145 prostate
ACHN renal = system: ACHN renal
BT-549 breast = system: BT-549 breast
SNB-19 CNS = system: SNB-19 CNS
MDA-MB-435 = system: MDA-MB-435
IGROV1 ovarian = system: IGROV1 ovarian
PC-3 prostate = system: PC-3 prostate
COLO 205 colon = system: COLO 205 colon
HL-60(TB) leukemia = system: HL-60(TB) leukemia
SF-539 CNS = system: SF-539 CNS
SK-MEL-5 melanoma = system: SK-MEL-5 melanoma
NCI-H226 lung = system: NCI-H226 lung

CCC(CN(C)C)C(=O)c1ccco1 (configuration not stated)
TGI (KM12 colon): > 100 µM | TGI (K-562 leukemia): > 100 µM | TGI (NCI/ADR-RES ovarian): > 100 µM | TGI (UACC-62 melanoma): > 100 µM | TGI (OVCAR-3 ovarian): > 100 µM | TGI (HT29 colon): > 100 µM | TGI (OVCAR-5 ovarian): > 100 µM | TGI (HCT-15 colon): > 100 µM | TGI (HS 578T breast): > 100 µM | TGI (SF-268 CNS): > 100 µM | TGI (UACC-257 melanoma): > 100 µM | TGI (A549 NSCLC): > 100 µM | TGI (SK-MEL-2 melanoma): > 100 µM | TGI (SR leukemia): > 100 µM | TGI (SNB-75 CNS): > 100 µM | TGI (M14 melanoma): > 100 µM | TGI (RPMI-8226 leukemia): > 100 µM | TGI (SW-620 colon): > 100 µM | TGI (MCF7 breast): > 100 µM | TGI (NCI-H23 lung): > 100 µM | TGI (SF-295 CNS): > 100 µM | TGI (UO-31 renal): > 100 µM | TGI (HOP-92 NSCLC): > 100 µM | TGI (A498 renal): > 100 µM | TGI (MOLT-4 leukemia): 96.8 µM | TGI (HOP-62 NSCLC): > 100 µM | TGI (CAKI-1 renal): > 100 µM | TGI (SK-MEL-28 melanoma): > 100 µM | TGI (MDA-MB-231 breast): > 100 µM | TGI (MALME-3M melanoma): > 100 µM | TGI (OVCAR-4 ovarian): > 100 µM | TGI (TK-10 renal): > 100 µM | TGI (HCC-2998 colon): > 100 µM | TGI (T-47D breast): > 100 µM | TGI (EKVX NSCLC): > 100 µM | TGI (RXF 393 renal): > 100 µM | TGI (OVCAR-8 ovarian): > 100 µM | TGI (NCI-H522 lung): 35.6 µM | TGI (LOX IMVI melanoma): > 100 µM | TGI (NCI-H460 lung): > 100 µM | TGI (U251 CNS): > 100 µM | TGI (SN12C renal): > 100 µM | TGI (HCT-116 colon): > 100 µM | TGI (SK-OV-3 ovarian): > 100 µM | TGI (786-0 renal): > 100 µM | TGI (DU-145 prostate): > 100 µM | TGI (ACHN renal): > 100 µM | TGI (BT-549 breast): > 100 µM | TGI (SNB-19 CNS): > 100 µM | TGI (MDA-MB-435): > 100 µM | TGI (IGROV1 ovarian): > 100 µM | TGI (PC-3 prostate): > 100 µM

O=C(CC(Cl)(Cl)C(Cl)(Cl)Cl)c1ccccc1
TGI (KM12 colon): 14.8 µM | TGI (K-562 leukemia): 4.57 µM | TGI (NCI/ADR-RES ovarian): 43.9 µM | TGI (UACC-62 melanoma): 6.56 µM | TGI (OVCAR-3 ovarian): 4.33 µM | TGI (HT29 colon): 4.72 µM | TGI (COLO 205 colon): 13.2 µM | TGI (OVCAR-5 ovarian): 25.8 µM | TGI (HCT-15 colon): 4.56 µM | TGI (HS 578T breast): 56.2 µM | TGI (SF-268 CNS): 55.4 µM | TGI (UACC-257 melanoma): 3.81 µM | TGI (A549 NSCLC): 39.1 µM | TGI (SK-MEL-2 melanoma): 32.3 µM | TGI (SR leukemia): 4.37 µM | TGI (SNB-75 CNS): 29.3 µM | TGI (M14 melanoma): 7.4 µM | TGI (RPMI-8226 leukemia): 6.09 µM | TGI (SW-620 colon): 12.2 µM | TGI (MCF7 breast): 23.6 µM | TGI (NCI-H23 lung): 20.5 µM | TGI (SF-295 CNS): 19.4 µM | TGI (UO-31 renal): 14.5 µM | TGI (HL-60(TB) leukemia): 29.9 µM | TGI (SF-539 CNS): 31.3 µM | TGI (HOP-92 NSCLC): 59.5 µM | TGI (A498 renal): 34.6 µM | TGI (MOLT-4 leukemia): 5.02 µM | TGI (HOP-62 NSCLC): 16.4 µM | TGI (CAKI-1 renal): 4.39 µM | TGI (SK-MEL-28 melanoma): 5.3 µM | TGI (MDA-MB-231 breast): 5.48 µM | TGI (MALME-3M melanoma): 8.91 µM | TGI (OVCAR-4 ovarian): 5.67 µM | TGI (TK-10 renal): 18.4 µM | TGI (SK-MEL-5 melanoma): 24.3 µM | TGI (NCI-H226 lung): 16.2 µM | TGI (T-47D breast): 7.08 µM | TGI (RXF 393 renal): 4.25 µM | TGI (OVCAR-8 ovarian): 8.53 µM | TGI (NCI-H522 lung): 7.3 µM | TGI (LOX IMVI melanoma): 3.74 µM | TGI (NCI-H460 lung): 32.5 µM | TGI (U251 CNS): 18.3 µM | TGI (SN12C renal): 3.09 µM | TGI (HCT-116 colon): 4.91 µM | TGI (SK-OV-3 ovarian): 38.2 µM | TGI (786-0 renal): 11.4 µM | TGI (DU-145 prostate): 15.1 µM | TGI (ACHN renal): 5.29 µM | TGI (BT-549 breast): 39.9 µM | TGI (SNB-19 CNS): 39.2 µM | TGI (MDA-MB-435): 5.34 µM | TGI (IGROV1 ovarian): 18.3 µM | TGI (PC-3 prostate): 29.1 µM
